Residues, ends and D or L forms follow the SMILES beside them.
Assays:
[1] = molecular target: T1, neurokinin A (NKA) receptor (NK-2) (Mesocricetus auratus, UniProt P51144); assay: displacement of I125 labeled NKA from hamster urinary bladder membranes; format: binding
T1 construct: displace I125 labeled NKA from hamster urinary bladder; from tissue; host or cells: hamster urinary bladder (membranes in A1, chopped tissue in A4)
T1 sequence (P51144 1-384): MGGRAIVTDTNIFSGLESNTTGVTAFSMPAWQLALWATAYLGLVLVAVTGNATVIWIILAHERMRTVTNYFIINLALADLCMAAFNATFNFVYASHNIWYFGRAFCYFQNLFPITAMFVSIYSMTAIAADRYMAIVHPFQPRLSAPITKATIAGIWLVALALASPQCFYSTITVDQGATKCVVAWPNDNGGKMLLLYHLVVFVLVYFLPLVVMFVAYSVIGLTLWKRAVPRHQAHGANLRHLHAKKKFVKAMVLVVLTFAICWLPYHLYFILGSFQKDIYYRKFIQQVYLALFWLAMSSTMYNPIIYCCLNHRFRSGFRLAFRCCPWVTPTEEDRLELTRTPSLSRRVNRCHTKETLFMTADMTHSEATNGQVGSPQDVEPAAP
Source text: The abscissa (x-axis) logarithmically indicates the concentration in nanomoles of agonist of antagonist of the neurokinin A (NKA) receptor. The ordinate (Y-axis) indicates the observed specific binding for each tested agonist or antagonist measured as a percentage of maximum specific binding.
Agonists tested were NKA and fragments of NKA consisting of the third to tenth (NKA(3-10)) amino acids and the fourth to tenth (NKA(4-10)) amino acids. Values are MEAN±S.E.M. of 6-12 experiments. IC50 values estimated graphically from 50% inhibition point.
Urinary bladders from several hamsters were pooled, minced, and homogenized in 50 mM TRIS-HCl (pH 7.4) containing 120 mM NaCl and 5 mM KCl at 4° C. and centrifuged at 48,000×g for 15 minutes. The pellet was resuspended for 30 minutes in 50 mM TRIS-HCl (pH 7.4) containing 10 mM EDTA and 300 mM KCl at 4° C. The suspension was centrifuged as above and the pellet was washed two times in plain 50 mM TRIS-HCl (pH 7.4) and centrifuged similarly. The tissue was then resuspended in incubation buffer and an aliquot (approximately 3-5 mg tissue) was added to each assay tube to commence the assay. The assay tubes contained incubation buffer consisting of 50 mM TRIS-HCl (pH 7.4), 0.02% BSA, 40 μg/ml bacitracin, 4 μg/ml chymostatin, 4 μg/ml leupeptin, 2 mM MnCl2, 0.1 nM ^125 iodohistidyl^1 -neurokinin A (Amersham Corp.), and concentrations of the title compounds or standards ranging from 0.03 nM to 100 μM. The assay was allowed to proceed to equilibrium for 120 min at room temperature. After this time, the contents of each tube was rapidly filtered over Whatman GF/B filters presoaked in 0.5% BSA and the filters were rapidly washed two times with ice-cold plain 50 mM TRIS-HCl (pH 7.4). Filter-bound radioactivity was quantitated in a gamma counter. Specific binding (maximum) was defined as the difference between binding in the presence and absence of 1 μM unlabeled neurokinin A. Competition of iodinated neurokinin A binding by test compounds or standards was expressed as a percentage of this maximum competition.
Values given indicate the concentration in nanomoles of antagonist to reach the IC50 of the neurokinin A (NKA) receptor. SKLKB82#3 represents a cloned NK-2 receptor cell line; the sample is prepared from the scraped cell pellet for assay as earlier described for the hamster urinary bladder preparations. NK-1 represents a substance P receptor preparation from rat salivary gland; receptors are prepared as earlier described for the hamster urinary bladder preparations. Blank spaces indicate compound has not been tested in that particular assay.

NKA receptor = molecular target: T2, NKA receptor (Mesocricetus auratus, UniProt P51144); assay: phosphatidylinositol (PI) turnover in hamster urinary bladder; format: cell-based; conditions: test compound alone; ID#3 up to 100 μM
T2 construct: displace I125 labeled NKA from hamster urinary bladder; from tissue; host or cells: hamster urinary bladder (membranes in A1, chopped tissue in A4)
T2 sequence (P51144 1-384): T1 sequence (P51144 1-384)
Method: The abscissa (x-axis) logarithmically indicates the concentration in nanomolar (nM) of agonist or antagonist of the NKA receptor. The ordinate (y-axis) indicates the observed PI turnover as a percentage of control. […] The ordinate (y-axis) indicates the observed PI turnover as a percentage of control. […] Urinary bladders from several hamsters were pooled and chopped at 350 μm with a tissue chopper. The chopped tissue was then incubated in 37° C. Krebs-Hepes buffer with fresh buffer changes every 15 minutes for 30 minutes. The tissue was then incubated in this buffer containing 100-200 μCi of ^3 H-inositol at 37° C. […] Test compound was also evaluated alone at the indicated concentrations to test for agonist activity. […] 50 μl of the bottom phase (chloroform) was withdrawn from each tube and placed in a counting vial, dried, and counted in scintillation fluid. The material on the columns was washed in order with: 1) 10 ml of water 2) 5 ml of 5 mM disodium tetraborate/60 mM sodium formate 3) 10 ml of 1M ammonium formate in 0.1M formic acid The final (third) wash was collected and one ml was mixed with 6 ml of ACS scintillant and counted. The ratio of these counts (total inositol phosphates) to the corresponding organic phase counts was then calculated for each sample. […]

Row | Compound | IC50 [1] [nM] | partial agonist activity (PI turnover) (NKA receptor) [%]
1 | CC(C)C[C@@H](CN(C)[C@@H](CC(C)C)C(N)=O)NC(=O)CNC(=O)[C@@H](NC(=O)[C@H](Cc1ccccc1)NC(=O)[C@H](CO)NC(=O)[C@@H](N)CC(=O)O)C(C)C [MDL 29,916, H-Asp-Ser-Phe-Val-Gly-Leu.PSI.(CH2 NCH3)Leu-NH2] (HELM PEPTIDE1{D.S.F.V.G.[CC(C)C[C@@H](CN(C)[C@@H](CC(C)C)C(N)=O)N[*:1]]}$$$$V2.0) | 210 ± 15 | 5
2 | CC(C)C[C@@H](CN[C@@H](CC(C)C)C(N)=O)NC(=O)CNC(=O)[C@@H](NC(=O)[C@H](Cc1ccccc1)NC(=O)[C@H](CO)NC(=O)[C@@H](N)CC(=O)O)C(C)C [MDL 28,564, H-Asp-Ser-Phe-Val-Gly-Leu.PSI.(CH2 NH)Leu-NH2] (HELM PEPTIDE1{D.S.F.V.G.[CC(C)C[C@@H](CN[C@@H](CC(C)C)C(N)=O)N[*:1]]}$$$$V2.0) | 157 ± 17 | 12

Reference: patent publication US5830863A, “Neurokinin A antagonists” (priority 1996, dated 1998)
